Experimental data from PubChem BioAssay (NCI).
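Cultured in 96-well plates, cells were exposed to test compound for 48 hours across five concentrations. TGI denotes the concentration required for complete inhibition of growth.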

Columns and labels:
Experiment in all cases: NCI tumour cell line growth inhibition, 48 h
NCI-H522 lung = system: NCI-H522 lung
SNB-19 CNS = system: SNB-19 CNS
HOP-92 NSCLC = system: HOP-92 NSCLC
ACHN renal = system: ACHN renal
UO-31 renal = system: UO-31 renal
UACC-257 melanoma = system: UACC-257 melanoma
SK-MEL-5 melanoma = system: SK-MEL-5 melanoma
A549 NSCLC = system: A549 NSCLC
HT29 colon = system: HT29 colon
HL-60(TB) leukemia = system: HL-60(TB) leukemia
UACC-62 melanoma = system: UACC-62 melanoma
SF-539 CNS = system: SF-539 CNS
LOX IMVI melanoma = system: LOX IMVI melanoma
COLO 205 colon = system: COLO 205 colon
786-0 renal = system: 786-0 renal
TK-10 renal = system: TK-10 renal
XF 498 CNS = system: XF 498 CNS
MALME-3M melanoma = system: MALME-3M melanoma
OVCAR-8 ovarian = system: OVCAR-8 ovarian
SF-295 CNS = system: SF-295 CNS
M14 melanoma = system: M14 melanoma
A498 renal = system: A498 renal
U251 CNS = system: U251 CNS
NCI-H226 lung = system: NCI-H226 lung
M19-MEL melanoma = system: M19-MEL melanoma
SW-620 colon = system: SW-620 colon
KM20L2 colon = system: KM20L2 colon
RXF-631 renal = system: RXF-631 renal
SK-OV-3 ovarian = system: SK-OV-3 ovarian
OVCAR-5 ovarian = system: OVCAR-5 ovarian
SN12C renal = system: SN12C renal
HCT-116 colon = system: HCT-116 colon
HCC-2998 colon = system: HCC-2998 colon
HOP-18 NSCLC = system: HOP-18 NSCLC
OVCAR-3 ovarian = system: OVCAR-3 ovarian
HCT-15 colon = system: HCT-15 colon
LXFL 529 NSCLC = system: LXFL 529 NSCLC
SK-MEL-2 melanoma = system: SK-MEL-2 melanoma
DLD-1 colon = system: DLD-1 colon
OVCAR-4 ovarian = system: OVCAR-4 ovarian
IGROV1 ovarian = system: IGROV1 ovarian
DMS 114 small cell lung = system: DMS 114 small cell lung
DMS 273 small cell lung = system: DMS 273 small cell lung
RXF 393 renal = system: RXF 393 renal
NCI-H460 lung = system: NCI-H460 lung
EKVX NSCLC = system: EKVX NSCLC
SNB-78 CNS = system: SNB-78 CNS
NCI-H23 lung = system: NCI-H23 lung
HOP-62 NSCLC = system: HOP-62 NSCLC
SK-MEL-28 melanoma = system: SK-MEL-28 melanoma
SF-268 CNS = system: SF-268 CNS
CCRF-CEM leukemia = system: CCRF-CEM leukemia
KM12 colon = system: KM12 colon
RPMI-8226 leukemia = system: RPMI-8226 leukemia
CAKI-1 renal = system: CAKI-1 renal
K-562 leukemia = system: K-562 leukemia
MOLT-4 leukemia = system: MOLT-4 leukemia

Compound `CCCCCCCCCCCCC(Br)C(C)=O` (stereo unspecified) has a TGI (NCI-H522 lung) greater than 100 µM, a TGI (SNB-19 CNS) greater than 100 µM and a TGI (HOP-92 NSCLC) greater than 100 µM. It also gave a TGI (ACHN renal) greater than 100 µM, a TGI (UO-31 renal) greater than 100 µM and a TGI (UACC-257 melanoma) greater than 100 µM. For the same compound, the TGI (SK-MEL-5 melanoma) was greater than 100 µM, the TGI (A549 NSCLC) was greater than 100 µM and the TGI (HT29 colon) was greater than 100 µM. It also gave a TGI (HL-60(TB) leukemia) greater than 100 µM, a TGI (UACC-62 melanoma) greater than 100 µM and a TGI (SF-539 CNS) greater than 100 µM. It also gave a TGI (LOX IMVI melanoma) greater than 100 µM, a TGI (COLO 205 colon) greater than 100 µM and a TGI (786-0 renal) greater than 100 µM. It also gave a TGI (TK-10 renal) greater than 100 µM, a TGI (XF 498 CNS) greater than 100 µM and a TGI (MALME-3M melanoma) greater than 100 µM. The TGI (OVCAR-8 ovarian) was greater than 100 µM, the TGI (SF-295 CNS) was greater than 100 µM and the TGI (M14 melanoma) was greater than 100 µM. It also gave a TGI (A498 renal) greater than 100 µM, a TGI (U251 CNS) greater than 100 µM and a TGI (NCI-H226 lung) greater than 100 µM. For the same compound, the TGI (M19-MEL melanoma) was greater than 100 µM, the TGI (SW-620 colon) was greater than 100 µM and the TGI (KM20L2 colon) was greater than 100 µM. It also gave a TGI (RXF-631 renal) greater than 100 µM, a TGI (SK-OV-3 ovarian) greater than 100 µM and a TGI (OVCAR-5 ovarian) greater than 100 µM. It also gave a TGI (SN12C renal) greater than 100 µM, a TGI (HCT-116 colon) greater than 100 µM and a TGI (HCC-2998 colon) greater than 100 µM. For the same compound, the TGI (HOP-18 NSCLC) was greater than 100 µM, the TGI (OVCAR-3 ovarian) was greater than 100 µM and the TGI (HCT-15 colon) was greater than 100 µM. It also gave a TGI (LXFL 529 NSCLC) greater than 100 µM, a TGI (SK-MEL-2 melanoma) greater than 100 µM and a TGI (DLD-1 colon) greater than 100 µM. It also gave a TGI (OVCAR-4 ovarian) greater than 100 µM, a TGI (IGROV1 ovarian) greater than 100 µM and a TGI (DMS 114 small cell lung) greater than 100 µM. It also gave a TGI (DMS 273 small cell lung) greater than 100 µM, a TGI (RXF 393 renal) greater than 100 µM and a TGI (NCI-H460 lung) greater than 100 µM. The TGI (EKVX NSCLC) was greater than 100 µM, the TGI (SNB-78 CNS) was greater than 100 µM and the TGI (NCI-H23 lung) was greater than 100 µM. The TGI (HOP-62 NSCLC) was greater than 100 µM, the TGI (SK-MEL-28 melanoma) was greater than 100 µM and the TGI (SF-268 CNS) was greater than 100 µM. The TGI (CCRF-CEM leukemia) was greater than 100 µM and the TGI (KM12 colon) was greater than 100 µM.
Compound `C=C1CC2(CCS(=O)(=O)c3ccccc32)OC1=O` (stereo unspecified) has a TGI (NCI-H522 lung) of 11.4 µM, a TGI (SNB-19 CNS) of 22.8 µM and a TGI (HOP-92 NSCLC) of 14.2 µM. It also gave a TGI (ACHN renal) of 23.7 µM, a TGI (UO-31 renal) of 26 µM and a TGI (UACC-257 melanoma) of 32.1 µM. It also gave a TGI (SK-MEL-5 melanoma) of 27 µM, a TGI (A549 NSCLC) of 35.2 µM and a TGI (HT29 colon) of 31.7 µM. The TGI (HL-60(TB) leukemia) was 8.64 µM, the TGI (UACC-62 melanoma) was 31.6 µM and the TGI (SF-539 CNS) was 18.1 µM. It also gave a TGI (LOX IMVI melanoma) of 33.3 µM, a TGI (COLO 205 colon) of 9.33 µM and a TGI (786-0 renal) of 15.7 µM. It also gave a TGI (TK-10 renal) of 26.7 µM, a TGI (XF 498 CNS) of 26.1 µM and a TGI (RPMI-8226 leukemia) of 10.6 µM. The TGI (MALME-3M melanoma) was 26.3 µM, the TGI (SF-295 CNS) was 45 µM and the TGI (CAKI-1 renal) was 3.3 µM. For the same compound, the TGI (M14 melanoma) was 20.3 µM, the TGI (A498 renal) was 31.5 µM and the TGI (U251 CNS) was 26 µM. The TGI (NCI-H226 lung) was 28.9 µM, the TGI (M19-MEL melanoma) was 37.2 µM and the TGI (SW-620 colon) was 11.4 µM. For the same compound, the TGI (KM20L2 colon) was 28.6 µM, the TGI (RXF-631 renal) was 43.4 µM and the TGI (SK-OV-3 ovarian) was 44.1 µM. It also gave a TGI (OVCAR-5 ovarian) of 27.3 µM, a TGI (HCC-2998 colon) of 37.1 µM and a TGI (HOP-18 NSCLC) of 14.7 µM. The TGI (OVCAR-3 ovarian) was 21 µM, the TGI (HCT-15 colon) was 27.6 µM and the TGI (LXFL 529 NSCLC) was 15.9 µM. It also gave a TGI (SK-MEL-2 melanoma) of 23.6 µM, a TGI (DLD-1 colon) of 25.9 µM and a TGI (OVCAR-4 ovarian) of 26.7 µM. The TGI (IGROV1 ovarian) was 34.1 µM, the TGI (DMS 114 small cell lung) was 14.2 µM and the TGI (DMS 273 small cell lung) was 30.5 µM. The TGI (NCI-H460 lung) was 35.3 µM, the TGI (EKVX NSCLC) was 33.1 µM and the TGI (SNB-78 CNS) was 33.6 µM. The TGI (NCI-H23 lung) was 27.7 µM, the TGI (HOP-62 NSCLC) was 46.8 µM and the TGI (SK-MEL-28 melanoma) was 27.8 µM. For the same compound, the TGI (K-562 leukemia) was 34.4 µM, the TGI (SF-268 CNS) was 38.4 µM and the TGI (CCRF-CEM leukemia) was 11 µM. For the same compound, the TGI (KM12 colon) was 37.8 µM and the TGI (MOLT-4 leukemia) was 15 µM.
